This note sets out measurements from US6235731A, “Fused imidazopyridine derivatives as antihyperlipidemic agents” (Takeda Chemical Industries, Ltd., priority 1996, dated 2001).

Where a name gives a salt, the structure may show the parent alone. Read-outs that look alike come from different tables or passages of the source.

For assay [1], the system named is Wistar fatty rats. Nature of the assay: Lipid-lowering effect in Wistar fatty rats. The conditions noted are these: 30 mg/kg/day by stomach tube, 2 weeks, plasma, Mean ± SD (n = 6). It counts as in vivo, Wistar fatty rat. Here is the method:
Lipid-lowering effect in Wistar fatty rats
Male Waistar fatty rats were maintained on free access to normal diet (CE-2, Clea Japan) and water. Body weights were measured at 10 weeks of age and the blood was taken from the orbital sinus and determined for plasma total cholesterol (TC), triglyceride (TG), glucose, and HDL-cholesterol (HDL-C) with Wako Pure Chemical and Kyowa Medex kits using an automatic analyzer (Hitachi 7070). Non-HDL-cholesterol (non-HDL-C) was calculated by subtracting HDL-cholesterol from total cholesterol.
The rats were divided into 2 groups (n=6) and 30 mg/kg/day of the test compound (Example 22) in 0.5% methylcellulose solution was administered by a stomach tube to one of the groups once daily for 2 weeks (test group). 0.5% Methylcellulose solution only was similarly administered to the other group (control group). On day 14, body weights were measured again and the blood was taken from the orbital sinus and determined for plasma total cholesterol, HDL-cholesterol, triglyceride, and glucose in the same manner as before.

The subject of assay [2] is HepG2 cells. Nature of the assay: Increase in LDL-binding to HepG2 cells. The format is cell-based. Conditions: 10 μM test compound, 20 hours, specific human [125I]LDL binding, normalized by protein, read-out: LDL binding (% of control). On the procedure:
Increase in LDL-binding to HepG2 cells LDL-binding was measured according to the method of J. L. Goldstein. HepG2 cells were purchased from ATCC (American type culture collection) and seeded in 6-well plate with collagen coating (Sumitomo Bakelite), and cultured in Eagle's minimum essential medium (MEM) containing 10%-fetal bovine serum at 37° C. for 4 days. […] After washing with phosphate buffered saline cells were incubated with MEM containing 25 mM-HEPES and 1%-bovine serum albumin (fatty acid free) in the presence of human [^125 I]LDL (4 μg/ml) at 6° C. for 2 hours. After washing cells bound [^125 I]LDL was dissociated with dextran sulfate and the radioactivity was measured (total binding). [^125 I]LDL binding to cells was also measured in the presence of LDL (300 μg/ml) as a non-specific binding (NSB). Specific [^125 I]LDL-binding was calculated by subtracting NSB from total binding and was normalized by protein content measured by the method of lowry. Data was expressed as percentage of the control.

Assay [3] has as its system Golden Syrian hamsters. Nature of the assay: Cholesterol lowering activity in Golden hamster. The format is in vivo, Golden Syrian hamster. Conditions: Mesocricetus auratus, po, 96 h, 20 mg/kg/d orally, once daily for 4 days. Here is the method:
Cholesterol lowering activity in Golden hamster Male Golden Syrian hamsters (110-130 g) were maintained freely on water and a laboratory diet (CE-2, Clea Japan Inc., Tokyo). […] Blood was taken from orbital sinus and plasma total cholesterol and triglyceride were measured an automatic analyzer (Hitachi 7070, Hitachi Ltd., Tokyo) using commercial kits (Wako Pure Chemical Industries, Osaka), and plasma HDL-cholesterol using a commercial kit (Kyowa Medex Co., Ltd., Tokyo) before and after the treatment of compound. Non-HDL cholesterol was calculated by subtracting HDL-cholesterol from total cholesterol. |Non-HDL-C (non-HDL-cholesterol): [total cholesterol]-[HDL-cholesterol] |TG: triglyceride

Where [4] appears, read: plasma triglyceride, read-out: TG (% of control).
Where [5] appears, read: plasma, [total cholesterol]-[HDL-cholesterol], read-out: Non-HDL-C (% of control).

As to `O=C(NCC1CCN(CCCc2ccccc2)CC1)C1=Cc2cnc3cccc(n23)S1` [Example 22, N-[1-(3-phenylpropan-1-yl)piperidin-4-ylmethyl]-5-thia-1,8b-diazaacenaphthylene-4-carboxamide Dihydrochloride], in assay [1] (* P < 0.05 vs control group (324.7 ± 74.2)), the “TG” value amounted to 258.3 ± 38.4 mg/dL. In addition, the “Glucose” value in assay [1] (* P < 0.05 vs control group (366.8 ± 72.0)) was determined as 268.2 ± 81.9 mg/dL. In addition, the “Non-HDL-C” value in assay [1] (** P < 0.01 vs control group (39.9 ± 3.7)) is 30.0 ± 5.2 mg/dL. In addition, the activity at 10 µM in assay [2] stood at 126%. For the same compound, the response vs control in vivo at 20 mg/kg is 62.3% in assay [3] (setting [4]) and 58.8% in assay [3] (setting [5]).
As to `O=C(NCCCN1CCC(c2ccccc2)CC1)C1=Cc2cnc3cccc(n23)S1` [Example 27, N-[3-(4-phenylpiperidin-1-yl)propan-1-yl]-5-thia-1,8b-diazaacenaphthylene-4-carboxamide Dihydrochloride], the activity at 10 µM in assay [2] came out at 168%. Moreover, the response vs control in vivo at 20 mg/kg in assay [3] (setting [4]) is 83.9%; in assay [3] (setting [5]), 73.9%.
With `O=C(NCCCCN1CCC(Cc2ccccc2)CC1)C1=Cc2cnc3cccc(n23)S1` [Example 28, N-[4-(4-benzylpiperidin-1-yl)butan-1-yl]-5-thia-1,8b-diazaacenaphthylene-4-carboxamide Dihydrochloride], the activity at 10 µM in assay [2] came out at 194%. Also, the response vs control in vivo at 20 mg/kg was determined as 61.3% in assay [3] (setting [4]) and 62.9% in assay [3] (setting [5]).
In the same order, the values of `O=C(NC1CCN(CCCc2ccccc2)CC1)C1=Cc2cnc3cccc(n23)S1` [Example 36, N-[1-(3-phenylpropan-1-yl)piperidin-4-yl]-5-thia-1,8b-diazaacenaphthylene-4-carboxamide Dihydrochloride] are 218%, 74.7% and 61.9%.
In the case of `O=C(NCCCC1CCN(CCCc2ccccc2)CC1)C1=Cc2cnc3cccc(n23)S1` [Example 46, N-[3-(1-(3-phenylpropan-1-yl)piperidin-4-yl)propan-1-yl]-5-thia-1,8b-diazaacenaphthylene-4-carboxamide Dihydrochloride], the activity at 10 µM in assay [2] is 166%. The response vs control in vivo at 20 mg/kg in assay [3] (setting [4]) stood at 72.4%; in assay [3] (setting [5]), 69.6%.
Regarding `O=C(NCC1CCN(CCCc2ccccc2F)CC1)C1=Cc2cnc3cccc(n23)S1` [Example 67, N-[1-(3-(2-fluorophenyl)propan-1-yl)piperidin-4-ylmethyl]-5-thia-1,8b-diazaacenaphthylene-4-carboxamide Dihydrochloride], in assay [2], the activity at 10 µM worked out at 162%. The response vs control in vivo at 20 mg/kg in assay [3] (setting [4]) stood at 67.9%; in assay [3] (setting [5]) it was 62%.
Regarding `O=C(NCC1CCN(CCCc2ccc(F)cc2F)CC1)C1=Cc2cnc3cccc(n23)S1` [Example 76, N-[1-(3-(2,4-difluorophenyl)propan-1-yl)piperidin-4-ylmethyl]-5-thia-1,8b-diazaacenaphthylene-4-carboxamide Dihydrochloride], the activity at 10 µM in assay [2] turned out to be 282%. In addition, the values for the response vs control in vivo at 20 mg/kg in assay [3] (setting [4]) and in assay [3] (setting [5]) were 58.1% and 74%, respectively.
